In patent publication US12662490B2, “Heterocyclic compounds” (Hoffmann-La Roche Inc., priority 2019, dated 2026):

Molecular target: T1, MAGL (Homo sapiens, UniProt Q99685)
T1 sequence (Q99685 1-303): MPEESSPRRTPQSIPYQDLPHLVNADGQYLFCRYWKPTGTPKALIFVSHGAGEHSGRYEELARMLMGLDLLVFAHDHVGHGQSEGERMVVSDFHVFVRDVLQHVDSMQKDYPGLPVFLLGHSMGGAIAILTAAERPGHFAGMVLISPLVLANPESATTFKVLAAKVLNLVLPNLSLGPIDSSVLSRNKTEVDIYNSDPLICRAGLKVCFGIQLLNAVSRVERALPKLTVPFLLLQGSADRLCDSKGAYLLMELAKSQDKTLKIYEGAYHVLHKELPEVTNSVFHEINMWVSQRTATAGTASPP
Experiment: 2-AG assay (MAGL inhibitory activity; hydrolysis of 2-arachidonoylglycerol to arachidonic acid followed by mass spectrometry)
Assay type: biochemical
Details: 15 min preincubation at RT, 8 μM 2-arachidonoylglycerol, 30 min at RT, RapidFire MS readout
Procedure: Compounds were profiled for MAGL inhibitory activity by determining the enzymatic activity by following the hydrolysis of the natural substrate 2-arachidonoylglycerol (2-AG) resulting in arachidonic acid, which can be followed by mass spectrometry. This assay is hereinafter abbreviated “2-AG assay”.
The 2-AG assay was carried out in 384 well assay plates (PP, Greiner Cat #784201) in a total volume of 20 μL. Compound dilutions were made in […] (VWR Chemicals 23500.297) in a polypropylene plate in 3-fold dilution steps to give a final concentration range in the assay from 12.5 μM to […]. 0.25 μL compound dilutions (100% DMSO) were added to 9 μL MAGL in assay buffer (50 mM TRIS (GIBCO, 15567-027), 1 mM EDTA (Fluka, 03690-100 mL), 0.010 (v/v) Tween. After shaking, the plate was incubated for 15 min at RT. To start the reaction, 10 μL 2-arachidonoylglycerol in assay buffer was added. The final concentrations in the assay was […] and 8 μM 2-arachidonoylglyerol. After shaking and 30 min incubation at RT, the reaction was quenched by the addition of 40 μL of ACN containing 4 μM of d8-arachidonic acid. The amount of arachidonic acid was traced by an online SPE system (Agilent Rapidfire) coupled to a triple quadrupole mass spectrometer (Agilent 6460). A C18 SPE cartridge (G9205A) was used in an ACN/water liquid setup. The mass spectrometer was operated in negative electrospray mode following the mass transitions 303.1→259.1 for arachidonic acid and 311.1→267.0 for d8-arachidonic acid. The activity of the compounds was calculated based on the ratio of intensities [arachidonic acid/d8-arachidonic acid].

Row | Compound | IC50 [nM]
1 | COc1cccc(C(=O)N2CCN3CC(c4ccc5c(c4)CC5)OCC3C2)c1Cl (mixture of isomers) [Example 47, [3-(3-bicyclo[4.2.0]octa-1,3,5-trienyl)-3,4,6,7,9,9a-hexahydro-1H-pyrazino[2,1-c][1,4]oxazin-8-yl]-(2-chloro-3-methoxy-phenyl)methanone] | 134
2 | COc1cccc(C(=O)N2CCN3CC(c4ccc(C(F)F)cc4)OCC3C2)c1Cl (mixture of isomers) [Example 48, (2-chloro-3-methoxy-phenyl)-[3-[4-(difluoromethyl)phenyl]-3,4,6,7,9,9a-hexahydro-1H-pyrazino[2,1-c][1,4]oxazin-8-yl]methanone] | 146
3 | O=C(c1cccc(-c2c[nH]nc2F)c1Cl)N1CCN2CC(c3ccc(C(F)(F)F)nc3)OC[C@@H]2C1 (mixture of isomers) [Example 68, [(9aS)-3-[6-(trifluoromethyl)-3-pyridyl]-3,4,6,7,9,9a-hexahydro-1H-pyrazino[2,1-c][1,4]oxazin-8-yl]-[2-chloro-3-(3-fluoro-1H-pyrazol-4-yl)phenyl]methanone] | 15.8
4 | O=C(c1cccc(-c2c[nH]nc2F)c1Cl)N1CCN2CC(c3ccc(Br)nc3)OC[C@@H]2C1 (mixture of isomers) [Example 70, [2-chloro-3-(3-fluoro-1H-pyrazol-4-yl)phenyl]-[(9aS)-3-(6-bromo-3-pyridyl)-3,4,6,7,9,9a-hexahydro-1H-pyrazino[2,1-c][1,4]oxazin-8-yl]methanone] | 44.6
5 | O=C(c1cccc(-c2c[nH]nc2F)c1Cl)N1CCN2CC(c3ccc(OC(F)F)cc3)OC[C@@H]2C1 (mixture of isomers) [Example 73, (2-chloro-3-(3-fluoro-1H-pyrazol-4-yl)phenyl)((9aS)-3-(4-(difluoromethoxy)phenyl)hexahydropyrazino[2,1-c][1,4]oxazin-8(1H)-yl)methanone] | 53.3
6 | COc1cccc(C(=O)N2CCN3C[C@@H](c4ccc(F)c(Cl)c4)OC[C@@H]3C2)c1Br (racemic) [Example 2, (2-bromo-3-methoxy-phenyl)-[rac-(3R,9aS)-3-(3-chloro-4-fluoro-phenyl)-3,4,6,7,9,9a-hexahydro-1H-pyrazino[2,1-c][1,4]oxazin-8-yl]methanone] | 14.6
7 | C/C=C/c1cc([C@@H]2CN3CCN(C(=O)c4cccc(OC)c4Cl)C[C@H]3CO2)ccc1F (racemic) [Example 10, (2-chloro-3-methoxy-phenyl)-[(3R,9aS)-3-[4-fluoro-3-[rac-(E)-prop-1-enyl]phenyl]-3,4,6,7,9,9a-hexahydro-1H-pyrazino[2,1-c][1,4]oxazin-8-yl]methanone] | 179
8 | COc1cccc(C(=O)N2CCN3C[C@H](c4ccc(Br)cn4)OC[C@H]3C2)c1Cl (racemic) [Example 53, (2-chloro-3-methoxy-phenyl)-[rac-(3R,9aR)-3-(5-bromo-2-pyridyl)-3,4,6,7,9,9a-hexahydro-1H-pyrazino[2,1-c][1,4]oxazin-8-yl]methanone] | 76
9 | COc1cccc(C(=O)N2CCN3C[C@@H](c4ccc(Br)cn4)OC[C@H]3C2)c1Cl (racemic) [Example 54, (2-chloro-3-methoxy-phenyl)-[rac-(3S,9aR)-3-(5-bromo-2-pyridyl)-3,4,6,7,9,9a-hexahydro-1H-pyrazino[2,1-c][1,4]oxazin-8-yl]methanone] | 975
10 | COc1cccc(C(=O)N2CCN3C[C@H](c4cncc(Cl)c4)OC[C@@H]3C2)c1Cl (racemic) [Example 58, (2-chloro-3-methoxy-phenyl)-[rac-(3S,9aS)-3-(5-chloro-3-pyridyl)-3,4,6,7,9,9a-hexahydro-1H-pyrazino[2,1-c][1,4]oxazin-8-yl]methanone] | 2220
11 | COc1cccc(C(=O)N2CCN3C[C@@H](c4cncc(Cl)c4)OC[C@@H]3C2)c1Cl (racemic) [Example 59, (2-chloro-3-methoxy-phenyl)-[rac-(3R,9aS)-3-(5-chloro-3-pyridyl)-3,4,6,7,9,9a-hexahydro-1H-pyrazino[2,1-c][1,4]oxazin-8-yl]methanone] | 544
12 | COc1cccc(C(=O)N2CCN3C[C@@H](c4sc(C)nc4C)OC[C@@H]3C2)c1Cl (single isomer, unassigned) [Example 51] | 4980
13 | COc1cccc(C(=O)N2CCN3C[C@H](c4sc(C)nc4C)OC[C@H]3C2)c1Cl (single isomer, unassigned) [Example 52] | 1380
14 | COc1cccc(C(=O)N2CCN3C[C@@](O)(c4nc5ccccc5[nH]4)OC[C@@H]3C2)c1Cl (single isomer, unassigned) [Example 60] | 951
15 | COc1cccc(C(=O)N2CCN3C[C@](O)(c4nc5ccccc5[nH]4)OC[C@H]3C2)c1Cl (single isomer, unassigned) [Example 61] | 294
16 | COc1cccc(C(=O)N2CCN3C[C@@H](c4cccc(C(F)(F)F)n4)OC[C@@H]3C2)c1Cl (single isomer, unassigned) [Example 63] | 1310
17 | COc1cccc(C(=O)N2CCN3C[C@H](c4cc(Cl)c(Cl)cn4)OC[C@H]3C2)c1Cl (single isomer, unassigned) [Example 66] | 531
18 | COc1cccc(C(=O)N2CCN3C[C@@H](c4cc(Cl)c(Cl)cn4)OC[C@@H]3C2)c1Cl (single isomer, unassigned) [Example 67] | 8.4
19 | COc1cccc(C(=O)N2CCN3CC(c4ccc(F)c(Cl)c4)SC[C@@H]3C2)c1Cl (single isomer, unassigned) [Example 161] | 3.1
20 | COc1cccc(C(=O)N2CCN3CC(c4ccc(F)c(Cl)c4)SC[C@@H]3C2)c1Cl (single isomer, unassigned) [Example 162] | 21.6
21 | COc1cccc(C(=O)N2CCN3C[C@@H](c4ccc(F)c(Cl)c4)OC[C@]3(C)C2)c1Cl (stereo in doubt) [Example 32, (2-chloro-3-methoxy-phenyl)-[(rel-3R,9aS)-3-(3-chloro-4-fluoro-phenyl)-9a-methyl-1,3,4,6,7,9-hexahydropyrazino[2,1-c][1,4]oxazin-8-yl]methanone] | 335
22 | COc1cccc(C(=O)N2CCN3C[C@H](c4ccc(F)c(Cl)c4)OC[C@@]3(C)C2)c1Cl (stereo in doubt) [Example 33, (2-chloro-3-methoxy-phenyl)-[(rel-3S,9aR)-3-(3-chloro-4-fluoro-phenyl)-9a-methyl-1,3,4,6,7,9-hexahydropyrazino[2,1-c][1,4]oxazin-8-yl]methanone] | 1910
23 | COc1cccc(C(=O)N2CCN3C[C@@H](c4ccc(F)c(Cl)c4)OC[C@@H]3C2)c1Cl [Example 1, [(3R,9aS)-3-(3-chloro-4-fluoro-phenyl)-3,4,6,7,9,9a-hexahydro-1H-pyrazino[2,1-c][1,4]oxazin-8-yl]-(2-chloro-3-methoxy-phenyl)methanone] | 18.3
24 | O=C(c1cnc2sccc2c1Cl)N1CCN2C[C@@H](c3ccc(F)c(Cl)c3)OC[C@@H]2C1 [Example 5, (4-chlorothieno[2,3-b]pyridin-5-yl)-[(3R,9aS)-3-(3-chloro-4-fluoro-phenyl)-3,4,6,7,9,9a-hexahydro-1H-pyrazino[2,1-c][1,4]oxazin-8-yl]methanone] | 28.2
